# According to ChEMBL document CHEMBL1146619, “The design and synthesis of guanosine compounds with in vitro activity against the colon cancer cell line SW480: non-taxane derived mimics of taxol?” (Bioorg Med Chem Lett, 2003):
# Tested on: SW480
# Assay: In vitro anti-cancer activity against the colon cancer cell line SW480 was determined
# Type: functional, cell-based
# Conditions: Homo sapiens
row,SMILES,IC50 [µM]
1,COc1ccc(C(Nc2nc(O)c3ncn(C4OC(COC(=O)[C@@H]5OC(C)(C)N(C(=O)c6ccccc6)[C@H]5c5ccccc5)C5OC(C)(C)OC54)c3n2)(c2ccccc2)c2ccccc2)cc1 (stereo not given in full),152
2,CC(C)C(=O)Nc1nc(O)c2ncn(C3OC(COC(=O)[C@@H]4OC(C)(C)N(C(=O)c5ccccc5)[C@H]4c4ccccc4)C4OC(C)(C)OC43)c2n1 (stereo not given in full),222

# Now from value to molecule:
row,IC50 [µM],SMILES
1,19.9,COc1ccc(C(Nc2nc(O)c3ncn(C4OC(COC(=O)[C@@H]5OC(C)(C)N(C(C)=O)[C@H]5c5ccccc5)C5OC(C)(C)OC54)c3n2)(c2ccccc2)c2ccccc2)cc1 (stereo not given in full)
2,192,CC(=O)N1[C@@H](c2ccccc2)[C@H](C(=O)OCC2OC(n3cnc4c(O)nc(NC(=O)C(C)C)nc43)C3OC(C)(C)OC23)OC1(C)C (stereo not given in full)
3,0.312,CC(=O)O[C@H]1C(=O)[C@@]2(C)[C@H]([C@H](OC(=O)c3ccccc3)[C@]3(O)C[C@H](OC(=O)[C@H](O)[C@@H](NC(=O)c4ccccc4)c4ccccc4)C(C)=C1C3(C)C)[C@]1(OC(C)=O)CO[C@@H]1C[C@@H]2O [PACLITAXEL]
